Test results published in patent EP0542371A1, “Saccharin derivative proteolytic enzyme inhibitors” (STERLING WINTHROP INC., priority 1991, dated 1993).

Experiments:
[1] = pKa by ultraviolet spectrophotometric determination in water; assay type: physicochemical
human leukocyte elastase = molecular target: T1, human leukocyte elastase (Homo sapiens, UniProt P08246); assay: Inhibition of human leukocyte elastase, in vitro (Ki* = koff/kon); assay type: biochemical; conditions: Ki* = koff/kon (rate of reactivation divided by rate of inactivation of the enzyme); calculated from measured koff and kon
T1 sequence (P08246 30-267): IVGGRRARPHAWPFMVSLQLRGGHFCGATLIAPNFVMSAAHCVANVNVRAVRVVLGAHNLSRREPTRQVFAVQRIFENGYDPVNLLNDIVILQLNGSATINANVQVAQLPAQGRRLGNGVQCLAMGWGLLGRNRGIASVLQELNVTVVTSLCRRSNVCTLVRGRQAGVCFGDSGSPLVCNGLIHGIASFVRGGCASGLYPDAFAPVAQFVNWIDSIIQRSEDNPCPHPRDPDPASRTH
Method: Ki*, which is defined as the rate of reactivation of the enzyme divided by the rate of inactivation of the enzyme (koff/on), was therefore determined instead. The values of koff and kon were measured and Ki* was then calculated.
The value of kon was determined by measuring the enzyme activity of an aliquot of the enzyme as a function of the time after addition of the test compound (inhibitor). […] The value of kon was then obtained by the equation kon = kobs[I] wherein [I] is the concentration of the inhibitor. The value of koff was similarly determined, and Ki* was then obtained by the equation Ki* = koff/kon.

[2] = pKa determination by titration in water; assay type: physicochemical

| pKa [1] | Ki (human leukocyte elastase) [nM] | pKa [2] | SMILES |
| --- | --- | --- | --- |
| 5.3 |  |  | NC(=O)c1nn[nH]c1C(N)=O [1,2,3-triazole-4,5-dicarboxamide] |
|  |  | 4.4 | COC(=O)c1nn[nH]c1C(=O)OC [1,2,3-triazole-4,5-dicarboxylic acid dimethyl ester] |
|  |  | 1.6 | N#Cc1nn[nH]c1C#N [1,2,3-triazole-4,5-dinitrile] |

The remaining lines, values behind:

| SMILES | pKa [1] | Ki (human leukocyte elastase) [nM] | pKa [2] |
| --- | --- | --- | --- |
| Sc1nnnn1-c1ccccc1 [1-phenyltetrazole-5-thiol] | 2.9 |  |  |
| COc1cc(C(C)C)c2c(c1)S(=O)(=O)N(COC(=O)c1c(Cl)ccc(OCCN3CCOCC3)c1Cl)C2=O [Example 2, 2-{2,6-dichloro-3-[2-(4-morpholinylethoxy)]benzoyloxymethyl}-4-isopropyl-6-methoxysaccharin] |  | 0.014 |  |
| COc1cc(C(C)C)c2c(c1)S(=O)(=O)N(Cn1nnc(S(=O)(=O)C(C)(C)C)c1S(=O)(=O)C(C)(C)C)C2=O [Example 1, 2-[4,5-di(t-butylsulfonyl)-1,2,3-triazol-1-yl]methyl-4-isopropyl-6-methoxysaccharin] |  | 0.024 |  |
